Experimental data reported in patent US10294488B2, “Herbicide-metabolizing cytochrome P450 monooxygenases” (BASF SE, priority 2012, dated 2019).

Key:
AmCYP03_1 (Seq ID 4) = test: Herbicide degradation in transgenic yeast cells expressing cytochrome P450 AmCYP03_1; type: in vitro ADME, Alopecurus myosuroides; conditions: transgenic yeast cells (S. cerevisiae BJ5459) expressing AmCYP03_1, Seq ID 4, recovery of herbicide in reference to control, UPLC-MS/MS
Description: (§1) The cDNA of CYP450 monooxygenase genes were synthesized with an optimized codon usage for yeast, cloned via uniqueBamHI-SalI restriction sites in the low copy pESC-ura expression vector (Agilent Technologies). Constructs were transformed into S. cerevisiae wild type strain BJ5459 (MATa ura3-5 trp lys2-801 leu2Δ1 his3Δ200 pep4Δ::HIS3 prb1Δ1.6R can1 GAL cir^+; ATCC 208284) using a Yeast Maker Transformation System from Clontech and verified by colony PCR. Positive clones were selected on minimal synthetic-defined media (SD) supplemented with appropriate dropout solution. The strain had no obvious phenotypes. Cells were induced in SG-Ura medium (same composition as SD but with galactose instead of glucose) for 24 h (Pompon et al., Methods in Enzymology 272:51-64 (1996); Urban et al., Eur. J. Biochem. 222:[…] (1994)). Optimal heterologous protein expression was assayed using Western Blot analysis.
(§2) 96 deep well growth plates (STARLAB GmbH) charged with 700 μL SDA medium are inoculated with the respective yeast strains from cryostock and incubated at 30° C., 400 rpm. After 48 h, an aliquot is transferred into a new plate with fresh SDA medium 400 rpm. After 4 h the cultures are spun down, the supernatant discarded and the pellets resuspended in 700 μL pre-warmed SGA media to induce protein expression at 30° C. and 400 rpm. After an incubation time of 24 h, 7 μL herbicide solution (500 μM DMSO stock solution) or solvent control is added to the yeast culture incubated for additional 24 h. The herbicide conversion is stopped by adding 700 μL acetonitrile followed by ultrasonification. The homogenate is prepared for UPLC-MS/MS analysis. The degradation rate was calculated by the determination of the recovery of the herbicide in reference to the control.

AmCYP03b (Seq ID 6) = test: Herbicide degradation in transgenic yeast cells expressing cytochrome P450 AmCYP03b; type: in vitro ADME, Alopecurus myosuroides; conditions: transgenic yeast cells (S. cerevisiae BJ5459) expressing AmCYP03b, recovery of herbicide in reference to control, UPLC-MS/MS
Description: as §1, §2

AmCYP04 (Seq ID 27) = test: Herbicide degradation in transgenic yeast cells expressing cytochrome P450 AmCYP04; type: in vitro ADME, Alopecurus myosuroides; conditions: transgenic yeast cells (S. cerevisiae BJ5459) expressing AmCYP04, Seq ID 27, recovery of herbicide in reference to control, UPLC-MS/MS
Description: as §1, §2

AmCYP12_1 (Seq ID 45) = test: Herbicide degradation in transgenic yeast cells expressing cytochrome P450 AmCYP12_1; type: in vitro ADME, Alopecurus myosuroides; conditions: transgenic yeast cells (S. cerevisiae BJ5459) expressing AmCYP12_1, Seq ID 45, recovery of herbicide in reference to control, UPLC-MS/MS
Description: as §1, §2

AmCYP01 (Seq ID 2) = test: Herbicide degradation in transgenic yeast cells expressing cytochrome P450 AmCYP01; type: in vitro ADME, Alopecurus myosuroides; conditions: transgenic yeast cells (S. cerevisiae BJ5459) expressing AmCYP01, Seq ID 2, recovery of herbicide in reference to control, UPLC-MS/MS
Description: as §1, §2

[1] = system: transgenic plants expressing Am_CYP03 (SEQ ID 4); test: Greenhouse herbicide tolerance of transgenic plants expressing Am_CYP03 (FIG. 1); type: in vivo, Arabidopsis thaliana; conditions: plants expressing Am_CYP03 (SEQ ID 4) vs wildtype, different application rates (g/ha)
Experimental: (§3) Transgenic Arabidopsis thaliana plants were assayed for improved tolerance to saflufenacil, 1,5-dimethyl-6-thioxo-3-(2,2,7-trifluoro-3-oxo-4-(prop-2-ynyl)-3,4-dihydro-2H-benzo[b][1,4]oxazin-6-yl)-1,3,5-triazinane-2,4-dione (CAS 1258836-72-4), chlorotoluron, pendimethalin, flumioxazin, butafenacil, acifluorfen, lactofen, bifenox, diuron, sulfentrazon, tepraloxydim, coumarone-derivative herbicides, azine-derivative herbicides in 48-well plates. Therefore, T2 seeds are surface sterilized by stirring for 5 min in ethanol+water (70+30 by volume), rinsing one time with ethanol+water (70+30 by volume) and two times with sterile, deionized water. The seeds are resuspended in 0.1% agar dissolved in water (w/v) Four to five seeds per well are plated on solid nutrient medium consisting of half-strength murashige skoog nutrient solution, pH 5.8 (Murashige and Skoog (1962) Physiologia Plantarum 15: 473-497). Compounds are dissolved in dimethylsulfoxid (DMSO) and added to the medium prior solidification (final DMSO concentration 0.1%). Multi well plates are incubated in a growth chamber at 22° C., 75% relative humidity and 110 μmol Phot*m^2*s^−1 with 14:10 h light: dark photoperiod. Growth inhibition is evaluated seven to ten days after seeding in comparison to wild type plants. Additionally, transgenic T1 Arabidopsis plants were tested for improved tolerance to herbicides in greenhouse studies with the following herbicides: saflufenacil, 1,5-dimethyl-6-thioxo-3-(2,2,7-trifluoro-3-oxo-4-(prop-2-ynyl)-3,4-dihydro-2H-benzo[b][1,4]oxazin-6-yl)-1,3,5-triazinane-2,4-dione (CAS 1258836-72-4), chlorotoluron, pendimethalin, flumioxazin, butafenacil, acifluorfen, lactofen, bifenox, diuron, sulfentrazone, tepraloxydim, coumarone-derivative herbicides, azine-derivative herbicides.

[2] = system: transgenic plants expressing Am_CYP04 (SEQ ID 27); test: Greenhouse herbicide tolerance of transgenic plants expressing Am_CYP04 (FIG. 2); type: in vivo, Arabidopsis thaliana; conditions: plants expressing Am_CYP04 (SEQ ID 27) vs wildtype, different application rates (g/ha)
Experimental: as §3

SMILES	Degradation rate of listed herbicidal compounds within 24 h (AmCYP03_1 (Seq ID 4))	Degradation rate of listed herbicidal compounds within 24 h (AmCYP03b (Seq ID 6))	Degradation rate of listed herbicidal compounds within 24 h (AmCYP04 (Seq ID 27))	Degradation rate of listed herbicidal compounds within 24 h (AmCYP12_1 (Seq ID 45))	Degradation rate of listed herbicidal compounds within 24 h (AmCYP01 (Seq ID 2))	Phenotype (injury) of transgenic plants compared to non-transgenic plants [1]	Phenotype (injury) of transgenic plants compared to non-transgenic plants [2]
C#CCN1C(=O)C(F)(F)Oc2cc(F)c(-n3c(=O)n(C)c(=S)n(C)c3=O)cc21 [1,5-dimethyl-6-thioxo-3-(2,2,7-trifluoro-3-oxo-4-(prop-2-ynyl)-3,4-dihydro-2H-benzo[b][1,4]oxazin-6-yl)-1,3,5-triazinane-2,4-dione, reference compound]	23	21	24	20	17	much less injured	much less injured
O=S1(=O)C(c2c(Cl)cc(Cl)nc2Cl)=C(O)c2ncccc2N1CC(F)F [Coumarone-derivative 1, 1-(2,2-difluoroethyl)-2,2-dioxo-3-(2,4,6-trichloro-3-pyridyl)pyrido[3,2-c]thiazin-4-ol]	25	18	31	10	0	–	–
N#Cc1ccc(C2=C(O)c3ncccc3N(CC(F)F)S2(=O)=O)c(C(F)(F)F)c1 [Coumarone-derivative 2, 4-[1-(2,2-difluoroethyl)-4-hydroxy-2,2-dioxo-pyrido[3,2-c]thiazin-3-yl]-3-(trifluoromethyl)benzonitrile]	16	7	0	24	0	–	–
O=S1(=O)Cc2cccnc2C(O)=C1c1ccccc1C(F)(F)F [Coumarone-derivative 3, 6,6-dioxo-7-[2-(trifluoromethyl)phenyl]-5H-thiopyrano[4,3-b]pyridin-8-ol]	0	0	9	27	0	–	–
O=S1(=O)Oc2cccnc2C(O)=C1c1c(Cl)cccc1C(F)(F)F [Coumarone-derivative 4, 3-[2-chloro-6-(trifluoromethyl)phenyl]-2,2-dioxo-oxathiino[5,6-b]pyridin-4-ol]	4	7	12	4	0	–	–
CC1(C)c2cccnc2C(O)=C(c2ccc(Cl)nc2Cl)S1(=O)=O [Coumarone-derivative 5, 7-(2,6-dichloro-3-pyridyl)-5,5-dimethyl-6,6-dioxo-thiopyrano[4,3-b]pyridin-8-ol]	2	17	22	15	14	–	–
CC1=NOC(c2c(Cl)ccc(C3=C(O)c4ncccc4C(C)(C)S3(=O)=O)c2Cl)C1 (stereo not shown) [Coumarone-derivative 6, 7-[2,4-dichloro-3-(3-methyl-4,5-dihydroisoxazol-5-yl)phenyl]-5,5-dimethyl-6,6-dioxo-thiopyrano[4,3-b]pyridin-8-ol]	2	0	0	4	1	–	–
COCCOCc1c(Cl)ccc(C2=C(O)c3ncccc3C(C)(C)S2(=O)=O)c1Cl [Coumarone-derivative 7, 7-[2,4-dichloro-3-(2-methoxyethoxymethyl)phenyl]-5,5-dimethyl-6,6-dioxo-thiopyrano[4,3-b]pyridin-8-ol]	14	6	7	5	0	–	–
COc1ccc(C2=C(O)c3ncccc3C(C)(C)S2(=O)=O)c(C(F)(F)F)n1 [Coumarone-derivative 8, 7-[6-methoxy-2-(trifluoromethyl)-3-pyridyl]-5,5-dimethyl-6,6-dioxo-thiopyrano[4,3-b]pyridin-8-ol]	10	0	0	3	0	–	–
O=S1(=O)C(c2c(Cl)cc(Cl)nc2Cl)=C(O)c2ncccc2N1CC(F)F [Coumarone-derivative 9, 1-(2,2-difluoroethyl)-2,2-dioxo-3-(2,4,6-trichloro-3-pyridyl)pyrido[3,2-c]thiazin-4-ol]	12	5	18	0	0	–	–
CN(c1c(Cl)ccc(C2=C(O)c3ncccc3C(C)(C)S2(=O)=O)c1Cl)S(C)(=O)=O [Coumarone-derivative 10, N-[2,6-dichloro-3-(8-hydroxy-5,5-dimethyl-6,6-dioxo-thiopyrano[4,3-b]pyridin-7-yl)phenyl]-N-methyl-methanesulfonamide]	15	9	19	0	0	–	–
Cc1c(Cl)ccc(Cl)c1C1=C(O)c2ncccc2C(C)(C)S1(=O)=O [Coumarone-derivative 11, 7-(3,6-dichloro-2-methyl-phenyl)-5,5-dimethyl-6,6-dioxo-thiopyrano[4,3-b]pyridin-8-ol]	0	18	0	0	0	–	–
CCC(CC)Nc1c([N+](=O)[O-])cc(C)c(C)c1[N+](=O)[O-] [pendimethalin, reference compound]	24	24	25	16	13	–	–
